Data taken from article PMC5218480 (PLoS ONE, 2017).

Test system: MV-4-11 cells
Assay: Gene expression microarray analysis (Affymetrix PrimeView) and GSEA
Format: cell-based, human
Design: RFU PODN (11730768_x_at) / Fold change /veh PODN (11730768_x_at) / RFU LINC00158 (11744669_a_at) / Fold change /veh LINC00158 (11744669_a_at) / RFU DUSP10 (11751237_a_at) / Fold change /veh DUSP10 (11751237_a_at) / RFU ID3 (11757404_x_at) / Fold change /veh ID3 (11757404_x_at) / RFU PLEKHG5 (11737974_s_at) / Fold change /veh PLEKHG5 (11737974_s_at) / RFU LRRC4B (11730491_at) / Fold change /veh LRRC4B (11730491_at) / RFU GIMAP4 (11747438_a_at) / Fold change /veh GIMAP4 (11747438_a_at) / RFU KRT8 (11758183_x_at) / Fold change /veh KRT8 (11758183_x_at) / RFU CNN1 (11734310_a_at) / Fold change /veh CNN1 (11734310_a_at) / RFU VPS37D (11726825_at) / Fold change /veh VPS37D (11726825_at) / RFU C10orf10 (11716522_x_at) / Fold change /veh C10orf10 (11716522_x_at) / RFU KIR2DL2 /// KIR2DL4 /// KIR2DL5A /// KIR2DL5B /// KIR2DS1 /// KIR2DS2 /// KIR2DS3 /// KIR2DS4 /// KIR3DL3 /// KIR3DL3 /// KIR3DS1 (11738374_at) / Fold change /veh KIR2DL2 /// KIR2DL4 /// KIR2DL5A /// KIR2DL5B /// KIR2DS1 /// KIR2DS2 /// KIR2DS3 /// KIR2DS4 /// KIR3DL3 /// KIR3DL3 /// KIR3DS1 (11738374_at) / RFU C1QL1 (11718748_at) / Fold change /veh C1QL1 (11718748_at) / RFU TMPRSS4 (11747572_a_at) / Fold change /veh TMPRSS4 (11747572_a_at) / RFU HAMP (11756126_x_at) / Fold change /veh HAMP (11756126_x_at) / RFU RNFT2 (11725882_a_at) / Fold change /veh RNFT2 (11725882_a_at) / RFU NR4A2 (11747474_a_at) / Fold change /veh NR4A2 (11747474_a_at) / RFU ABCC12 (11746883_a_at) / Fold change /veh ABCC12 (11746883_a_at) / RFU TMEM136 (11760407_x_at) / Fold change /veh TMEM136 (11760407_x_at) / RFU CLDN22 /// WWC2 (11732394_at) / Fold change /veh CLDN22 /// WWC2 (11732394_at) / RFU HLA-DPB1 (11760878_x_at) / Fold change /veh HLA-DPB1 (11760878_x_at) / RFU SPINT1 (11716480_a_at) / Fold change /veh SPINT1 (11716480_a_at) / RFU GAP43 (11754022_s_at) / Fold change /veh GAP43 (11754022_s_at) / RFU A4GNT (11735810_at) / Fold change /veh A4GNT (11735810_at) / RFU PRB3 (11715151_x_at) / Fold change /veh PRB3 (11715151_x_at) / RFU TUBB4B (11761932_at) / Fold change /veh TUBB4B (11761932_at) / RFU CAPN14 (11732068_a_at) / Fold change /veh CAPN14 (11732068_a_at) / RFU TMCC2 (11721928_a_at) / Fold change /veh TMCC2 (11721928_a_at) / RFU IRGQ (11745062_a_at) / Fold change /veh IRGQ (11745062_a_at) / RFU FAM174B (11720279_a_at) / Fold change /veh FAM174B (11720279_a_at) / RFU TMPRSS4 (11748680_a_at) / Fold change /veh TMPRSS4 (11748680_a_at) / RFU FAM212B (11763350_a_at) / Fold change /veh FAM212B (11763350_a_at) / RFU PLEKHG5 (11743358_a_at) / Fold change /veh PLEKHG5 (11743358_a_at) / RFU ZSCAN30 (11745921_a_at) / Fold change /veh ZSCAN30 (11745921_a_at) / RFU CMKLR1 (11741424_a_at) / Fold change /veh CMKLR1 (11741424_a_at) / RFU LOC101060620 /// MAPK8IP1 (11723275_at) / Fold change /veh LOC101060620 /// MAPK8IP1 (11723275_at) / RFU SPTSSB (11747773_x_at) / Fold change /veh SPTSSB (11747773_x_at) / RFU PRSS12 (11739890_at) / Fold change /veh PRSS12 (11739890_at) / RFU BIN1 (11741810_x_at) / Fold change /veh BIN1 (11741810_x_at) / RFU WNT11 (11732464_a_at) / Fold change /veh WNT11 (11732464_a_at) / RFU C10orf10 (11716521_a_at) / Fold change /veh C10orf10 (11716521_a_at) / RFU C5orf56 (11738089_at) / Fold change /veh C5orf56 (11738089_at) / RFU CYB561 (11721691_x_at) / Fold change /veh CYB561 (11721691_x_at) / RFU ANKRD19P (11752326_a_at) / Fold change /veh ANKRD19P (11752326_a_at) / RFU OR2T12 /// OR2T33 /// OR2T8 (11738714_s_at) / Fold change /veh OR2T12 /// OR2T33 /// OR2T8 (11738714_s_at) / RFU VCAN (11748164_a_at) / Fold change /veh VCAN (11748164_a_at) / RFU JSRP1 (11732532_at) / Fold change /veh JSRP1 (11732532_at) / RFU KRTAP10-11 (11738290_x_at) / Fold change /veh KRTAP10-11 (11738290_x_at) / RFU MYO3A (11730013_a_at) / Fold change /veh MYO3A (11730013_a_at) / RFU EBF3 (11725865_a_at) / Fold change /veh EBF3 (11725865_a_at) / RFU CAMK2N1 (11719241_x_at) / Fold change /veh CAMK2N1 (11719241_x_at) / RFU C5orf56 (11738088_a_at) / Fold change /veh C5orf56 (11738088_a_at) / RFU OLFML3 (11715873_a_at) / Fold change /veh OLFML3 (11715873_a_at) / RFU LOC100653217 /// NTM (11731650_a_at) / Fold change /veh LOC100653217 /// NTM (11731650_a_at) / RFU MAPK11 (11762145_a_at) / Fold change /veh MAPK11 (11762145_a_at) / RFU FIZ1 (11724087_x_at) / Fold change /veh FIZ1 (11724087_x_at) / RFU OASL (11726364_x_at) / Fold change /veh OASL (11726364_x_at) / RFU SOX15 (11748057_x_at) / Fold change /veh SOX15 (11748057_x_at) / RFU CD79A (11719716_a_at) / Fold change /veh CD79A (11719716_a_at) / RFU HIST1H1D (11736915_at) / Fold change /veh HIST1H1D (11736915_at) / RFU CASKIN2 (11723855_a_at) / Fold change /veh CASKIN2 (11723855_a_at) / RFU LOC730098 (11760151_x_at) / Fold change /veh LOC730098 (11760151_x_at) / RFU OR4N2 (11742367_at) / Fold change /veh OR4N2 (11742367_at) / RFU PRRT2 (11749266_a_at) / Fold change /veh PRRT2 (11749266_a_at) / RFU SNX32 (11753110_a_at) / Fold change /veh SNX32 (11753110_a_at) / RFU CDHR5 (11726645_a_at) / Fold change /veh CDHR5 (11726645_a_at) / RFU RCAN1 (11760418_a_at) / Fold change /veh RCAN1 (11760418_a_at) / RFU FAM167A (11723789_a_at) / Fold change /veh FAM167A (11723789_a_at) / RFU FAM26E (11764081_at) / Fold change /veh FAM26E (11764081_at) / RFU ISYNA1 (11749810_s_at) / Fold change /veh ISYNA1 (11749810_s_at) / RFU ACY1 (11761880_at) / Fold change /veh ACY1 (11761880_at) / RFU 11764098_at / Fold change /veh 11764098_at / RFU SAMD14 (11745864_x_at) / Fold change /veh SAMD14 (11745864_x_at) / RFU NPB (11741838_a_at) / Fold change /veh NPB (11741838_a_at) / RFU TMPRSS6 (11731388_a_at) / Fold change /veh TMPRSS6 (11731388_a_at) / RFU KRTAP10-2 (11738614_at) / Fold change /veh KRTAP10-2 (11738614_at) / RFU ARHGAP8 /// PRR5-ARHGAP8 (11727945_x_at) / Fold change /veh ARHGAP8 /// PRR5-ARHGAP8 (11727945_x_at) / RFU KRTAP5-7 /// NADSYN1 (11734609_at) / Fold change /veh KRTAP5-7 /// NADSYN1 (11734609_at) / RFU RASL12 (11751679_a_at) / Fold change /veh RASL12 (11751679_a_at) / RFU CDKN2B (11736163_a_at) / Fold change /veh CDKN2B (11736163_a_at) / RFU PRF1 (11729649_at) / Fold change /veh PRF1 (11729649_at) / RFU, ZNF638 /// ZNF638-IT1 / Fold change vs veh, ZNF638 /// ZNF638-IT1 / RFU, PANK3 / Fold change vs veh, PANK3 / RFU, SH3YL1 / Fold change vs veh, SH3YL1 / RFU, ZEB2 / Fold change vs veh, ZEB2 / RFU, NRIP1 / Fold change vs veh, NRIP1 / RFU, PTTG1IP / Fold change vs veh, PTTG1IP / RFU, CAPN2 / Fold change vs veh, CAPN2 / RFU, MED14 / Fold change vs veh, MED14 / RFU, SNORA58 / Fold change vs veh, SNORA58 / RFU, C1orf63 / Fold change vs veh, C1orf63 / RFU, LRRFIP1 / Fold change vs veh, LRRFIP1 / RFU, NDUFAF7 / Fold change vs veh, NDUFAF7 / RFU, SLC12A2 / Fold change vs veh, SLC12A2 / RFU, IBTK / Fold change vs veh, IBTK / RFU, ESF1 / Fold change vs veh, ESF1 / Fold change vs veh, TMEM50B / RFU, TAOK1 / Fold change vs veh, TAOK1 / RFU, ACBD3 / Fold change vs veh, ACBD3 / RFU, TMA16 / Fold change vs veh, TMA16 / RFU, RWDD3 / Fold change vs veh, RWDD3 / RFU, BCAT1 / Fold change vs veh, BCAT1 / RFU, EDEM3 / Fold change vs veh, EDEM3 / RFU, TMEM33 / Fold change vs veh, TMEM33 / RFU, WDR75 / Fold change vs veh, WDR75 / RFU, AHCTF1 / Fold change vs veh, AHCTF1 / RFU, TFRC / Fold change vs veh, TFRC / RFU, ZDHHC17 / Fold change vs veh, ZDHHC17 / RFU, NOM1 / Fold change vs veh, NOM1 / RFU, ARL8B / Fold change vs veh, ARL8B / RFU, ZBTB11 / Fold change vs veh, ZBTB11 / RFU, TAMM41 / Fold change vs veh, TAMM41 / RFU, KIAA1704 /// LOC100996395 / Fold change vs veh, KIAA1704 /// LOC100996395 / RFU, ING1 / Fold change vs veh, ING1 / RFU, TRMT61B / Fold change vs veh, TRMT61B / RFU, FUBP3 / Fold change vs veh, FUBP3 / RFU, TP53 / Fold change vs veh, TP53 / RFU, TNKS2 / Fold change vs veh, TNKS2 / RFU, ZFP14 / Fold change vs veh, ZFP14 / RFU, ACTR2 / Fold change vs veh, ACTR2 / RFU, PPP3R1 / Fold change vs veh, PPP3R1 / RFU, PIK3R1 / Fold change vs veh, PIK3R1 / RFU, HNRNPA1 / Fold change vs veh, HNRNPA1 / RFU, RNF170 / Fold change vs veh, RNF170 / RFU, ZNF28 / Fold change vs veh, ZNF28 / RFU, RNGTT / Fold change vs veh, RNGTT / RFU, OGT / Fold change vs veh, OGT / RFU, BRD1 / Fold change vs veh, BRD1 / RFU, MARS / Fold change vs veh, MARS / RFU, ZNF655 / Fold change vs veh, ZNF655 / RFU, FAHD1 / Fold change vs veh, FAHD1 / RFU, BDP1 / Fold change vs veh, BDP1 / RFU, LRRCC1 / Fold change vs veh, LRRCC1 / RFU, ARID1A / Fold change vs veh, ARID1A / RFU, ZNF146 / Fold change vs veh, ZNF146 / RFU, ZNF330 / Fold change vs veh, ZNF330 / RFU, GPN3 / Fold change vs veh, GPN3 / RFU, C9orf123 / Fold change vs veh, C9orf123 / RFU, N4BP2L2 / Fold change vs veh, N4BP2L2 / RFU, ARFIP1 / Fold change vs veh, ARFIP1 / RFU, FAM179B / Fold change vs veh, FAM179B / RFU, BCL10 / Fold change vs veh, BCL10 / RFU, UHRF1BP1L / Fold change vs veh, UHRF1BP1L / RFU, BET1 / Fold change vs veh, BET1 / RFU, CNOT2 / Fold change vs veh, CNOT2 / RFU, ZNF268 / Fold change vs veh, ZNF268 / Fold change vs veh, ZNF507 / RFU, DGCR2 / Fold change vs veh, DGCR2 / RFU, WDSUB1 / Fold change vs veh, WDSUB1 / Fold change vs veh, HSP90B1 /// MIR3652 / RFU, ADSS / Fold change vs veh, ADSS / RFU, GK / Fold change vs veh, GK / RFU, ZNF148 / Fold change vs veh, ZNF148 / RFU, TAF9 / Fold change vs veh, TAF9 / RFU, SLC1A5 / Fold change vs veh, SLC1A5 / RFU, SLMO2 / Fold change vs veh, SLMO2 / RFU, ABCC4 / Fold change vs veh, ABCC4 / RFU, LOC101060439 /// RAP1B / Fold change vs veh, LOC101060439 /// RAP1B / RFU, RFX7 / Fold change vs veh, RFX7 / RFU, GTPBP10 / Fold change vs veh, GTPBP10 / RFU, CNEP1R1 / Fold change vs veh, CNEP1R1 / RFU, BIVM-ERCC5 /// ERCC5 / Fold change vs veh, BIVM-ERCC5 /// ERCC5 / RFU, ILF3 / Fold change vs veh, ILF3 / RFU 11762660_at / Fold change /veh 11762660_at / RFU VCAN (11757783_s_at) / Fold change /veh VCAN (11757783_s_at) / RFU DDX43 (11728927_at) / Fold change /veh DDX43 (11728927_at) / RFU KRT8 (11758188_x_at) / Fold change /veh KRT8 (11758188_x_at) / RFU NKD1 (11759106_at) / Fold change /veh NKD1 (11759106_at) / RFU SRD5A1 (11742802_a_at) / Fold change /veh SRD5A1 (11742802_a_at) / RFU TPSAB1 /// TPSB2 (11721975_s_at) / Fold change /veh TPSAB1 /// TPSB2 (11721975_s_at) / RFU GSTM3 (11746129_a_at) / Fold change /veh GSTM3 (11746129_a_at) / RFU IL23R (11737362_x_at) / Fold change /veh IL23R (11737362_x_at) / RFU TMEM51 (11727254_a_at) / Fold change /veh TMEM51 (11727254_a_at) / RFU PIWIL2 (11732686_x_at) / Fold change /veh PIWIL2 (11732686_x_at) / RFU ORM1 (11744905_x_at) / Fold change /veh ORM1 (11744905_x_at) / RFU CCDC152 (11743942_at) / Fold change /veh CCDC152 (11743942_at) / RFU ECM1 (11717891_a_at) / Fold change /veh ECM1 (11717891_a_at) / RFU IL23R (11748794_a_at) / Fold change /veh IL23R (11748794_a_at) / RFU TNFAIP8L3 (11732012_x_at) / Fold change /veh TNFAIP8L3 (11732012_x_at) / RFU MBOAT4 (11741988_at) / Fold change /veh MBOAT4 (11741988_at) / RFU 11764193_at / Fold change /veh 11764193_at / RFU TMEM53 (11763286_at) / Fold change /veh TMEM53 (11763286_at) / RFU MAGEB2 (11727129_at) / Fold change /veh MAGEB2 (11727129_at) / RFU TMEM200A (11744735_a_at) / Fold change /veh TMEM200A (11744735_a_at) / RFU CCDC152 (11751479_a_at) / Fold change /veh CCDC152 (11751479_a_at) / RFU FAM211A (11726209_a_at) / Fold change /veh FAM211A (11726209_a_at) / RFU RGS16 (11746705_a_at) / Fold change /veh RGS16 (11746705_a_at) / RFU VCAN (11755009_s_at) / Fold change /veh VCAN (11755009_s_at) / RFU RHOB (11743442_s_at) / Fold change /veh RHOB (11743442_s_at) / RFU RGS16 (11720943_a_at) / Fold change /veh RGS16 (11720943_a_at) / RFU RGS16 (11720944_at) / Fold change /veh RGS16 (11720944_at) / RFU, VPS4B / Fold change vs veh, VPS4B / RFU, CREB1 / Fold change vs veh, CREB1 / RFU, DNAJC13 / Fold change vs veh, DNAJC13 / RFU, GNAQ / Fold change vs veh, GNAQ / RFU, CDK5R1 / Fold change vs veh, CDK5R1 / RFU, ZRANB3 / Fold change vs veh, ZRANB3 / RFU, CUL4A / Fold change vs veh, CUL4A / RFU, CCNY / Fold change vs veh, CCNY / RFU, UFL1 / Fold change vs veh, UFL1 / RFU, COG3 / Fold change vs veh, COG3 / RFU, DIAPH2 / Fold change vs veh, DIAPH2 / RFU, SKA2 / Fold change vs veh, SKA2 / RFU, AFF3 / Fold change vs veh, AFF3 / RFU, LMF1 / Fold change vs veh, LMF1 / RFU, IPO11 / Fold change vs veh, IPO11 / RFU, DFFB / Fold change vs veh, DFFB / RFU, FOXP1 / Fold change vs veh, FOXP1 / RFU, CARD8 / Fold change vs veh, CARD8 / RFU, STRN3 / Fold change vs veh, STRN3 / RFU, ADK / Fold change vs veh, ADK / RFU, RASSF2 / Fold change vs veh, RASSF2 / RFU, WIPF1 / Fold change vs veh, WIPF1 / RFU, LARP1B / Fold change vs veh, LARP1B / RFU, RASA1 / Fold change vs veh, RASA1 / RFU, RB1 / Fold change vs veh, RB1 / RFU, PPFIA1 / Fold change vs veh, PPFIA1 / RFU, MAT2A / Fold change vs veh, MAT2A / RFU, CCT5 / Fold change vs veh, CCT5 / RFU, WDR92 / Fold change vs veh, WDR92 / RFU, CUX1 / Fold change vs veh, CUX1 / RFU, TTC7A / Fold change vs veh, TTC7A / RFU, TMEM135 / Fold change vs veh, TMEM135 / RFU, DEPTOR / Fold change vs veh, DEPTOR / RFU, CPM / Fold change vs veh, CPM / RFU, DNAJB6 / Fold change vs veh, DNAJB6 / RFU, CACNA2D3 / Fold change vs veh, CACNA2D3 / RFU, DTX4 / Fold change vs veh, DTX4 / RFU, TFCP2 / Fold change vs veh, TFCP2 / RFU, GMCL1 /// GMCL1P1 / Fold change vs veh, GMCL1 /// GMCL1P1 / RFU, AEBP2 / Fold change vs veh, AEBP2 / RFU, SNHG1 /// SNORD22 /// SNORD25 /// SNORD26 /// SNORD27 /// SNORD28 /// SNORD29 /// SNORD31 / Fold change vs veh, SNHG1 /// SNORD22 /// SNORD25 /// SNORD26 /// SNORD27 /// SNORD28 /// SNORD29 /// SNORD31 / Fold change (Aza/veh), C12orf56 (ProbeSet 11735607_a_at) / Fold change (ACY-1035/veh), C12orf56 (ProbeSet 11735607_a_at) / Fold change (Aza/veh), FGFR1OP (ProbeSet 11751329_s_at) / Fold change (ACY-1035/veh), FGFR1OP (ProbeSet 11751329_s_at) / Fold change (Aza/veh), VPS36 (ProbeSet 11739960_a_at) / Fold change (ACY-1035/veh), VPS36 (ProbeSet 11739960_a_at) / RFU SYPL1 (11715823_x_at) / Fold change /veh SYPL1 (11715823_x_at) / RFU IGFBP7 (11715501_s_at) / Fold change /veh IGFBP7 (11715501_s_at) / RFU REEP3 (11722064_at) / Fold change /veh REEP3 (11722064_at) / RFU IGLL1 (11728026_x_at) / Fold change /veh IGLL1 (11728026_x_at): dose or concentration left out as unconfirmed
Details: ProbeSet 11727545_at; LIST B

Nc1ncn([C@@H]2O[C@H](CO)[C@@H](O)[C@H]2O)c(=O)n1 [azacitidine]
Fold change vs veh, PANK3: 0.85
